From ChEMBL document CHEMBL1201862, “PubChem BioAssay data set” (2004)
Calls of active or inactive are those of the source.

Legend:
HEK293 [1] = assay: NOD1 signaling inhibitors, primary screen, cell-based, luminescence, uHTS (AID 1578); assay type: functional; details: Homo sapiens
HEK293 [2] = assay: cells; assay type: functional, cell-based; details: Homo sapiens
HEK293 [3] = assay: cells; assay type: functional, cell-based; details: Homo sapiens; remark: listed apart in the source
[4] = target: Nucleotide-binding oligomerization domain-containing protein 2 (Homo sapiens, UniProt Q9HC29); assay: NOD2 signaling inhibitors, cell-based, luminescence, uHTS, HEK293 (AID 1566); assay type: functional
Nucleotide-binding oligomerization domain-containing protein 2, sequence (Q9HC29 whole entry, the tested form may be a part): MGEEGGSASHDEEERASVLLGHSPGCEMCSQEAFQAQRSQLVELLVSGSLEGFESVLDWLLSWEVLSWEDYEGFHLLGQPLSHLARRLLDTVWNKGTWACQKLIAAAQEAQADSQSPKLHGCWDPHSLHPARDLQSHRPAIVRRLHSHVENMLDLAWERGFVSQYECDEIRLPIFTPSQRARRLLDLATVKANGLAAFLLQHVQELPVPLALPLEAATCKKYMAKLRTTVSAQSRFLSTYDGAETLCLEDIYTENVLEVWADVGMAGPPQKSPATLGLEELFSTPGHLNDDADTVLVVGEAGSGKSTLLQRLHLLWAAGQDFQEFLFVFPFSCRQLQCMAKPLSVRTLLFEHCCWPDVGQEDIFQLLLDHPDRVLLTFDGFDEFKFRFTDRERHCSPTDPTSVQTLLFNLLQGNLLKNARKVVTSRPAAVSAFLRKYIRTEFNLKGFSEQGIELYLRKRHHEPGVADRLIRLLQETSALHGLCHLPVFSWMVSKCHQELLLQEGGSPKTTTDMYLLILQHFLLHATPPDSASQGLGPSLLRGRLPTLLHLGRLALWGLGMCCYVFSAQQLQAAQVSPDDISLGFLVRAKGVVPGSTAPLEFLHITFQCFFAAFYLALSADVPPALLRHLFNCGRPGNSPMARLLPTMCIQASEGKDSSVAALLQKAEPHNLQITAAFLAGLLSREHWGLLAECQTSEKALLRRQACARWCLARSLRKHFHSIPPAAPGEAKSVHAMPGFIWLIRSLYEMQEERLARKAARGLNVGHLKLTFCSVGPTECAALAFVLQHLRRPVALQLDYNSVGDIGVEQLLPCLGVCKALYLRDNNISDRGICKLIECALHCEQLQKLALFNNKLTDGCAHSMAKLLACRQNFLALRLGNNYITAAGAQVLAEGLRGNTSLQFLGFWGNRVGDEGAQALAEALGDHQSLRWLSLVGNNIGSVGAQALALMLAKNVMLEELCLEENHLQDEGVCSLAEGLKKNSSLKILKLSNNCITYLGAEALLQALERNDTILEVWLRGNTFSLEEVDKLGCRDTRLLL

HEK293 [5] = assay: NOD2 signaling inhibitors in MDP-stimulated cells, cell-based, uHTS, luminescence (AID 2001); assay type: functional; details: Homo sapiens
HEK293 [6] = assay: cells; assay type: functional, cell-based; details: Homo sapiens; remark: listed apart in the source
[7] = target: T1, Microphthalmia-associated transcription factor (Homo sapiens, UniProt O75030); assay: TRPM1 promoter luciferase signal decrease, dose response, MITF inhibitor project, cell-based, SK-MEL-5, cherry-picked, set 3 (AID 493073); assay type: functional
T1 sequence (O75030 whole entry): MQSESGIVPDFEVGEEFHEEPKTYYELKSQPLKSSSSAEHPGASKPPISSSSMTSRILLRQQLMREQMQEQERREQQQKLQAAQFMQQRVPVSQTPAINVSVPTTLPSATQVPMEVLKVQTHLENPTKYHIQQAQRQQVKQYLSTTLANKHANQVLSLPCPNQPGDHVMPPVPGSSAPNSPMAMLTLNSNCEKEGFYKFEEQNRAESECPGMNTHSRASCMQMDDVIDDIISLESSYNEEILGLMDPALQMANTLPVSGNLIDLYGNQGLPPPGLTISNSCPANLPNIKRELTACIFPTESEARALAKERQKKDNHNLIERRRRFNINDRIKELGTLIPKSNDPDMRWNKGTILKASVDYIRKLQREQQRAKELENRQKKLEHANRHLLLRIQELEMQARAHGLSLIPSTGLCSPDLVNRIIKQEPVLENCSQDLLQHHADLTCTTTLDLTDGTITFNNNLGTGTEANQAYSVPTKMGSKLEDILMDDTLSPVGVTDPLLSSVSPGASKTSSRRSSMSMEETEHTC

[8] = cytotoxicity in HEK-293T cells, dose response, cytotoxicity control for BCR NF-kB inhibitor project, luminescence, B-cell screen hits (AID 489021); assay type: functional, cell-based;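 also: HEK-293T cells carrying an NF-kB luciferase reporter; cells exposed to compound for about 14 hours before viability readout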
[9] = growth suppression of PTEN-null colon cells, dose response, cell-based, HCT116 PTEN knockout (AID 1047); assay type: functional;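 also: HCT116 colon tumor cells with PTEN knocked out; cells exposed to compound for 60 hours before readout; potency for loss of cell viability measured by luminescence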
[10] = growth suppression of beta-catenin-knockout colon cells, dose response, cell-based, HCT116, human colon tumor (AID 1045); assay type: functional;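 also: HCT116 colon tumor cells with beta catenin knocked out; cells exposed to compound for 60 hours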
Vero [11] = assay: cells; assay type: functional, cell-based; details: Chlorocebus sabaeus
Vero [12] = assay: cells; assay type: functional; details: Chlorocebus sabaeus
[13] = target: T2, Voltage-gated N-type calcium channel alpha-1B subunit/Amyloid beta A4 precursor protein-binding family A member 1 (Homo sapiens, UniProt Q00975+Q02410); assay type: protein assay
T2 sequence (Q00975 whole entry): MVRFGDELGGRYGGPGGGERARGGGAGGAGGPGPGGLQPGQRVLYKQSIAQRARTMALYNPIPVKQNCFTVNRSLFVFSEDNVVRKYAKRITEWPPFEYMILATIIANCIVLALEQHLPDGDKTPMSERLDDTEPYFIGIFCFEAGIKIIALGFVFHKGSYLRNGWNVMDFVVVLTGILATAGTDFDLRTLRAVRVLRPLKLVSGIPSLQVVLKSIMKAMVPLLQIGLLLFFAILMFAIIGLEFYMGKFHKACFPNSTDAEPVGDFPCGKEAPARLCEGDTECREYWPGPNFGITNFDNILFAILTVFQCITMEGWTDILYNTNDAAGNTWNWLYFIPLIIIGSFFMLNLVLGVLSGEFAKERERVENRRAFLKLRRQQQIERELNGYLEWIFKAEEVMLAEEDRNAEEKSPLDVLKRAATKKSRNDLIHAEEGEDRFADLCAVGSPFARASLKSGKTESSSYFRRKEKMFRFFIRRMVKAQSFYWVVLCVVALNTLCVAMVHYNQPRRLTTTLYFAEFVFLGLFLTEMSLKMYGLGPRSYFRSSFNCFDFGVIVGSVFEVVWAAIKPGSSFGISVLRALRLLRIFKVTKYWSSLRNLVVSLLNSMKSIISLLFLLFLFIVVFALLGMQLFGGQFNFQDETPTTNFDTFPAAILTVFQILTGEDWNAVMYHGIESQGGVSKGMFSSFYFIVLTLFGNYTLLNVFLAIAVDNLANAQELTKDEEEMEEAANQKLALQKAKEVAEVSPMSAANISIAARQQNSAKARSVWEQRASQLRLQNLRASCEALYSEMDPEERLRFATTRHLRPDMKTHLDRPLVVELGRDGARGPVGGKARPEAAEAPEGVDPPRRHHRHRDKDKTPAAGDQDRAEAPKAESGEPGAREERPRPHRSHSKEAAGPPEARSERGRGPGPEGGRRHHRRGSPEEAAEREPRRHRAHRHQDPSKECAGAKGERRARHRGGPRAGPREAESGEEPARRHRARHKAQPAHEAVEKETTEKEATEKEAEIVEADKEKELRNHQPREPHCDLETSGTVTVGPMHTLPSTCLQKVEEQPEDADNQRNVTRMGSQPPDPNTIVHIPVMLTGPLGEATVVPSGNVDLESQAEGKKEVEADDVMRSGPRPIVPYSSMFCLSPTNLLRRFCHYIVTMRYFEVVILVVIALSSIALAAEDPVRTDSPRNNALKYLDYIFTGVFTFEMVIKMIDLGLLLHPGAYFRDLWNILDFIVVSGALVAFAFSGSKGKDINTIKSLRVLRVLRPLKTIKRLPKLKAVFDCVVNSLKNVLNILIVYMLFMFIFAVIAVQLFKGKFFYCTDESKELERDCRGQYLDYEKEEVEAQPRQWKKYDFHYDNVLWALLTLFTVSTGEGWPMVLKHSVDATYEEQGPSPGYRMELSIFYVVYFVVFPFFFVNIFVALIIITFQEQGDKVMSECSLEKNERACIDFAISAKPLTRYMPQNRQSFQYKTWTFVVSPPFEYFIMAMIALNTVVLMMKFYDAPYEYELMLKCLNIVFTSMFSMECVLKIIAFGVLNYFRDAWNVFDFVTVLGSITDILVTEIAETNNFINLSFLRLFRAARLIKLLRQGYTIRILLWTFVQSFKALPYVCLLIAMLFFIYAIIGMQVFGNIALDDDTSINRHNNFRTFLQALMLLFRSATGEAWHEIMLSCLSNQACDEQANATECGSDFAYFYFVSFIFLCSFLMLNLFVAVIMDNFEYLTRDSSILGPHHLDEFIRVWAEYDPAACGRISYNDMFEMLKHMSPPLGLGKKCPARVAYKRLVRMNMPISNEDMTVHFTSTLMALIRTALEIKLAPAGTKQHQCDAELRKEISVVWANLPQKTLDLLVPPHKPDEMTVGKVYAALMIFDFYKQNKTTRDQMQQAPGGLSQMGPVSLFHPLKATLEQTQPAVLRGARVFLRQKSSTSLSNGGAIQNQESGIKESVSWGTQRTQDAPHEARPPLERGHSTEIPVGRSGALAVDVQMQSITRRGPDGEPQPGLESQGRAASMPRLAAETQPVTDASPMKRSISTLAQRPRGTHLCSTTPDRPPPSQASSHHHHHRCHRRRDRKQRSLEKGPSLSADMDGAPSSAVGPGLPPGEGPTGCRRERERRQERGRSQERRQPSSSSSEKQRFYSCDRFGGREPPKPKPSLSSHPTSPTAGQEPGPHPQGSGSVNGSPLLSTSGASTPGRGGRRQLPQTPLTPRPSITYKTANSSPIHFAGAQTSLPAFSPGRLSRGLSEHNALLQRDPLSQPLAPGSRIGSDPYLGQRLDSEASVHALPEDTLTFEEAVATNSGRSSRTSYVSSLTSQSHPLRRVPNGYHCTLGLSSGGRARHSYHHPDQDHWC
T2 sequence (Q02410 whole entry): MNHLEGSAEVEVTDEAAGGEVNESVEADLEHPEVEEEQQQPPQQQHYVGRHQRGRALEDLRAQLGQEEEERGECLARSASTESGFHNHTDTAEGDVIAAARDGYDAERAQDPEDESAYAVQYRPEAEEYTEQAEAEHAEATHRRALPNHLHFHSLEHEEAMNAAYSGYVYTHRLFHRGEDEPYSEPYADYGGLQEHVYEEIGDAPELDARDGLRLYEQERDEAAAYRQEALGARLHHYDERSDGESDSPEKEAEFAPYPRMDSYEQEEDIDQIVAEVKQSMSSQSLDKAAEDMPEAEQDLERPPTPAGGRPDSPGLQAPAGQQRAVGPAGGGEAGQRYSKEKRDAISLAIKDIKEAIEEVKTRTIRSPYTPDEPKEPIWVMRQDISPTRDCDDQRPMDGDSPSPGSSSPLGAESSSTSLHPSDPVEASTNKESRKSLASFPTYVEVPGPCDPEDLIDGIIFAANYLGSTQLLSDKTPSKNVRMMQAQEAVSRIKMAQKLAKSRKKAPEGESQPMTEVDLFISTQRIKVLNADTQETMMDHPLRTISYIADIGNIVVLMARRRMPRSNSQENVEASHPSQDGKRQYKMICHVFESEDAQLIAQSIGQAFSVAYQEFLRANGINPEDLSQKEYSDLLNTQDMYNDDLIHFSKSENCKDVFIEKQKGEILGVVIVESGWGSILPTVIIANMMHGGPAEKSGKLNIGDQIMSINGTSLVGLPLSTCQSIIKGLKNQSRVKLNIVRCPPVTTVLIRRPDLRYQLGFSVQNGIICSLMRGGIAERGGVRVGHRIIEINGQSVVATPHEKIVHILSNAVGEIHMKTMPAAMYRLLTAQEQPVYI

[14] = target: T2, Voltage-gated N-type calcium channel alpha-1B subunit/Amyloid beta A4 precursor protein-binding family A member 1; assay type: protein assay; remark: listed apart in the source
Cytochrome P450 2D6 = Cytochrome P450 2D6 (Homo sapiens, UniProt P10635);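 also: CYP2D6 member of a cytochrome P450 panel assay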
Cytochrome P450 3A4 = Cytochrome P450 3A4 (Homo sapiens, UniProt P08684);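 also: CYP3A4 tested as one member of a cytochrome P450 panel screen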
Cytochrome P450 3A4, sequence (P08684 whole entry): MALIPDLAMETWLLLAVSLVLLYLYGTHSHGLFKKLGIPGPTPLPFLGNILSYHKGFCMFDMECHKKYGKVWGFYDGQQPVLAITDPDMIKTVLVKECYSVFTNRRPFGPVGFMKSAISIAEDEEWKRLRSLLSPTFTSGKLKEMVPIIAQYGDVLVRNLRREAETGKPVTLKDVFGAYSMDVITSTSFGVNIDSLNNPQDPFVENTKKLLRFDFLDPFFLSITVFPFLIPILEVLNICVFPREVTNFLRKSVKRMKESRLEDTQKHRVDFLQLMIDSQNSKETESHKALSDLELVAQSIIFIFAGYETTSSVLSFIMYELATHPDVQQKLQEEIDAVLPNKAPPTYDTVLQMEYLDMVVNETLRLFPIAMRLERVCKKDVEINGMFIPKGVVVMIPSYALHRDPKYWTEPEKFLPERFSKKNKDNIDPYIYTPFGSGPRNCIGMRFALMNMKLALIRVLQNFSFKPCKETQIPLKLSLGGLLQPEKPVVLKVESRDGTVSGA

[15] = insulin promoter down-regulators in MIN6 cells, imaging, high-content screening, mouse beta cells (AID 1628); assay type: functional
[16] = system: Streptococcus sp. 'group A'; assay: growth inhibition of control SK(-) GAS strain, dose response, counter-screen for streptokinase expression inhibitor project, luminescence, kanamycin, BacTiterGlo, confirmation (AID 1900); assay type: functional, organism-based
cells [17] = assay type: functional, cell-based
[18] = cytotoxicity in MIN6 insulinoma cells, dose response, cytotoxicity control, cell-based, mouse insulinoma (AID 2122); assay type: functional;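 also: confirmatory high-throughput counterscreen run to flag cytotoxic compounds; mouse MIN-6 beta cells carrying an insulin promoter eGFP reporter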
[19] = inhibitors of intracellular T. cruzi replication, confirmation, NIH3T3 host cells, beta-gal luminescence (AID 2044); assay type: functional, cell-based;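 also: intracellular parasites grown in NIH/3T3 mouse fibroblasts as host cells; luminescent beta-galactosidase reporter signal from transgenic T. cruzi replicating inside host cells; inhibitors lower the luminescence signal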
cells [20] = assay type: functional, cell-based; remark: listed apart in the source
[21] = cytotoxicity toward NIH3T3 fibroblasts, dose response, counter-screen, cell-based, ATP luminescence, mouse fibroblasts (AID 2010); assay type: functional;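 also: cells exposed to compound for about 90 hours before reading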
Streptococcus = assay: Group A Streptococcus viability loss, dose response, counter-screen for streptokinase expression inhibitor project, luminescence, BacTiterGlo (AID 1915); assay type: functional, organism-based;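 also: potency for reduction of bacterial viability or growth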
[22] = Luminescence Cell-Based Dose Retest to Confirm Inhibitors of Cancer Stem Cells. [Related pubchem assays (depositor defined):AID2717, AID2721]; assay type: functional; details: Homo sapiens
INS1 = assay: beta cell apoptosis inhibitors, cytokine rescue, dose response, luminescence, retest (AID 449756); assay type: functional, cell-based; details: Rattus norvegicus;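 also: cell death triggered by IL-1 beta plus TNF-alpha plus IFN-gamma mixture; protective hits raise ATP signal compared with cytokine alone wells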

Structure (SMILES): COc1ccc(/C=C2\SC(=S)N(CCCC(=O)NNC(=O)c3ccccc3O)C2=O)cc1
- EC50 (HEK293 [1]): 8.29 µM (active)
- IC50 (HEK293 [2]): 5.39 µM (active)
- IC50 (HEK293 [3]): > 20 µM (inactive)
- EC50 [4]: > 20 µM (inactive)
- IC50 (HEK293 [5]): 5.62 µM (active)
- IC50 (HEK293 [6]): > 20 µM (inactive)
- AC50 [7]: 1.38 µM (active)
- IC50 [8]: > 80 µM (inactive)

Structure (SMILES): Cc1ccc(NC(=O)c2cc(=O)c3ccccc3o2)cc1S(=O)(=O)N1CCCCC1
- EC50 (HEK293 [1]): 8.74 µM (active)
- IC50 (HEK293 [3]): > 20 µM (inactive)
- EC50 [4]: > 20 µM (inactive)
- IC50 (HEK293 [5]): 9.78 µM (active)
- IC50 (HEK293 [6]): > 20 µM (inactive)

Structure (SMILES): CC(C)c1ccc(/C=C2\SC(=S)N(CCC(=O)N3CCCCC3CCO)C2=O)cc1 (stereo not given)
- AC50 [7]: 7.43 µM (active)
- IC50 [8]: 72.4 µM (inactive)

Structure (SMILES): CC(C)N1C/C(=C/c2ccsc2)C(=O)/C(=C/c2ccsc2)C1
- EC50 [9]: 1.39 µM (active)
- EC50 [10]: 1.34 µM (active)
- IC50 (Vero [11]): > 25 µM (active)
- CC50 (Vero [12]): 5.33 µM (active)

Structure (SMILES): C=CCn1c(SCC(=O)c2cccs2)nc2sc(C)c(C)c2c1=O
- IC50 (Vero [11]): 24.8 µM (active)

Structure (SMILES): Cc1ccc(-c2nn(-c3ccccc3)cc2/C=C/C(=O)O)o1
- IC50 [13]: 17.6 µM (active)
- IC50 [14]: 30.9 µM (active)

Structure (SMILES): Clc1ccccc1-c1cc(NCc2ccccc2)ncn1
- AC50 (Cytochrome P450 2D6): 20 µM (inconclusive)
- AC50 (Cytochrome P450 3A4): inconclusive

Structure (SMILES): CS(=O)(=O)Nc1ccc(S(=O)(=O)N2CCOCC2)cc1
- AC50 (Cytochrome P450 3A4): inconclusive

Structure (SMILES): O=C(N/N=C/c1cc(Br)ccc1O)C(=O)Nc1ccccc1OC(F)(F)C(F)F
- IC50 [15]: 1.93 µM (active)
- EC50 [16]: 0.866 µM (active)
- EC50 (cells [17]): 10.9 µM (active)
- IC50 [18]: 2.22 µM (active)
- EC50 [19]: 0.572 µM (active)
- EC50 (cells [20]): > 350 µM (not active)
- EC50 [21]: 8.61 µM (active)
- EC50 (Streptococcus): 1.82 µM (active)
- AC50 [22]: 1.62 µM (active)
- AC50 (INS1): 2.17 µM (active)
